Data reported in US10189845B2, “4,6-substituted-pyrazolo[1,5-a]pyrazines as janus kinase inhibitors” (ARRAY BIOPHARMA INC., priority 2014, dated 2019).
Where a name gives a salt, the structure may show the parent alone. Read-outs that look alike come from different tables or passages of the source.

Tests used:
Format in all cases: biochemical
Human Tyk2 kinase domain = Human Tyk2 kinase domain (Homo sapiens (Human), UniProt P29597); experiment: Tyk2 Inhibition Assay (Example A, Omnia kinase fluorescence peptide substrate assay); conditions: TYK2 Enzyme IC50 1 mM ATP, averaged IC50 ranges
Excerpt: (§1) The assays described in Examples A, B, C and D for the determination of Tyk2, JAK1, JAK2 and JAK3 kinase activity, respectively, utilized the Omnia® Kinase fluorescence peptide substrate-based technology (Invitrogen). The specific components of the assay mixture are described in Examples A, B, C and D. In these assays, Mg^2+ is chelated upon phosphorylation of the Omnia peptide by the kinase to form a bridge between the chelation-enhanced fluorophore Sox and the phosphate, resulting in an increase in fluorescence emission at 485 nm when excited at […]. The reactions were therefore read at excitation 360 nm and emission was measured at 485 nm every 50 seconds for 45 minutes using a PerkinElmer EnVision Multilabel Plate Reader.
(§2) The final buffer conditions for Tyk2, JAK1, JAK2, and JAK3 assays were as follows: 25 mM HEPES, pH 7.4, 10 mM MgCl2, 0.01% Triton X-100 and 1 mM DTT.
(§3) Two-μL aliquots of these were transferred to a fresh plate for a ten-fold intermediate dilution with assay buffer. Five-μL aliquots of the diluted compounds were then transferred to 20-μL of assay mixtures described in Examples A, B, C and D for a final concentration of DMSO of 2%. […] For each plate, percent of control (POC) values were calculated for each well according to the following equation: […]
(§4) IC50's were estimated from the POC's using a standard 4-parameter logistic model:
(§5) The IC50 is defined as the concentration of inhibitor at which the POC equals 50 for the fitted curve.
Compounds of Formula I were screened for their ability to inhibit Tyk2 using the general enzyme inhibition assay method, in which the assay mixture contained 1 mM ATP, 8 μM Omnia Y12 peptide (Catalog # IVGN KPZ3121C; Invitrogen Corporation, Carlsbad, Calif.) and 1 nM Tyk2 in a total volume of 25 μL. Human Tyk2 kinase domain, comprising amino acids 886 to 1187 with 10 additional histidine residues (histidine tag) on the carboxy terminus, was expressed and purified from bacculovirus in-house at Array BioPharma Inc. (Boulder, Colo.). The histidine tag was cleaved after purification using standard conditions.

JAK3 = JAK3 (Homo sapiens (Human), UniProt P52333); experiment: JAK3 Inhibition Assay (Example D, Omnia kinase fluorescence peptide substrate assay)
Excerpt: as §1, §2, §3, §4, §5
(§6) Compounds of Formula I were screened for their ability to inhibit JAK3 using the general enzyme inhibition assay method, in which the assay mixture contained 1 mM ATP, 10 μM Omnia® Y7 peptide (Catalog # IVGN KNZ3071C, Invitrogen Corporation, Carlsbad, Calif.) and 2 nM JAK3 in a total volume of 25 μL. JAK3 was purchased from Invitrogen Corporation, Carlsbad, Calif. (catalog # IVGN PV4080).

JAK1 = JAK1 (Homo sapiens (Human), UniProt P23458); experiment: JAK1 Inhibition Assay (Example B, Omnia kinase fluorescence peptide substrate assay)
Excerpt: as §1, §2, §3, §4, §5
Compounds of Formula I were screened for their ability to inhibit JAK1 using the general enzyme inhibition assay method, in which the assay mixture contained 1 mM ATP, 8 μM Omnia® Y12 peptide (Catalog # IVGN KPZ3121C; Invitrogen Corporation, Carlsbad, Calif.) and 12.5 nM JAK1 in a total volume of 25 μL. JAK1 was purchased from Invitrogen Corporation, Carlsbad, Calif. (catalog # IVGN PV4775).

JAK2 = JAK2 (Homo sapiens (Human), UniProt O60674); experiment: JAK2 Inhibition Assay (Example C, Omnia kinase fluorescence peptide substrate assay); conditions: JAK2 Enzyme IC50 1 mM ATP, averaged IC50 ranges
Excerpt: as §1, §2, §3, §4, §5
as §6, with “inhibit JAK2” for “inhibit JAK3”, “and 4” for “and 2”, “nM JAK2” for “nM JAK3”, “μL. JAK2” for “μL. JAK3”, “IVGN PV4288).” for “IVGN PV4080).”

[1] = JAK1 Enzyme IC50 1 mM ATP, 1 mM ATP, averaged IC50 ranges

Sequence of JAK3 (P52333 whole entry): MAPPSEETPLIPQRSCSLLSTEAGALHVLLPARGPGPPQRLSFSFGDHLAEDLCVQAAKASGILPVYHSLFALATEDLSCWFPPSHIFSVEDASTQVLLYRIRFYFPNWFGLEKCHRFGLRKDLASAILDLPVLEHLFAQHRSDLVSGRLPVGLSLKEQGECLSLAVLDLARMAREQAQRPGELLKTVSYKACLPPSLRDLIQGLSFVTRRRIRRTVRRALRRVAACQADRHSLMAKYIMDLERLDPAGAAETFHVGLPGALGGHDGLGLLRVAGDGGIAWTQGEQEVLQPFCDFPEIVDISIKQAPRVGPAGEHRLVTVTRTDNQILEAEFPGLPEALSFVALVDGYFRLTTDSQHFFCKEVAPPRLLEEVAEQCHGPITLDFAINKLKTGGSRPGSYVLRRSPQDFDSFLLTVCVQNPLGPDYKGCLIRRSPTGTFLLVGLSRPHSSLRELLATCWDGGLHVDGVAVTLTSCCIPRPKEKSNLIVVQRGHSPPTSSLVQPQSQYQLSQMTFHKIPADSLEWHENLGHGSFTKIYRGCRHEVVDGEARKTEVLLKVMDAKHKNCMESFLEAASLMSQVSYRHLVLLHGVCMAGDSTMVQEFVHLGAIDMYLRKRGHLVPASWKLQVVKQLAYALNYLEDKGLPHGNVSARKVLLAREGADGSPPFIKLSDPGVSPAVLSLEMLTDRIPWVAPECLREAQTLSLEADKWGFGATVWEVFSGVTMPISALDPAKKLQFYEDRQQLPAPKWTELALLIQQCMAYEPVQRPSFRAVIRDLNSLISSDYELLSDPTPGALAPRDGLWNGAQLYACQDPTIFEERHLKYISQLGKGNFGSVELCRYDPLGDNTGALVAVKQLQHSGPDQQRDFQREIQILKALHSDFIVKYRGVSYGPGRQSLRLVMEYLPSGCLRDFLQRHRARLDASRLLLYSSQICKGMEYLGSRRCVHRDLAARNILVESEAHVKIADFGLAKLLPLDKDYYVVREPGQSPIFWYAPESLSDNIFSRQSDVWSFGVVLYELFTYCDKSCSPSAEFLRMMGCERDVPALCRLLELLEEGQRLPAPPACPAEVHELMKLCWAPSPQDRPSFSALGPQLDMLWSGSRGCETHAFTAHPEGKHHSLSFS
Sequence of Human Tyk2 kinase domain (P29597 886-1187): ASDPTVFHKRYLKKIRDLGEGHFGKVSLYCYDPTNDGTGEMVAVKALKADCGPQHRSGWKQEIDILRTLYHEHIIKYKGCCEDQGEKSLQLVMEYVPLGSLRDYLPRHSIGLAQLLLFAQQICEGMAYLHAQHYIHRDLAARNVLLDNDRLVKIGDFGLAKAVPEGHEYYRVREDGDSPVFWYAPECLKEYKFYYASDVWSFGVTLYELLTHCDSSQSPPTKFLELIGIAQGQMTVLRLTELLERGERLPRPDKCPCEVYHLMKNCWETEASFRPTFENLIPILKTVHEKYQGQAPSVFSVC
Sequence of JAK2 (O60674 whole entry): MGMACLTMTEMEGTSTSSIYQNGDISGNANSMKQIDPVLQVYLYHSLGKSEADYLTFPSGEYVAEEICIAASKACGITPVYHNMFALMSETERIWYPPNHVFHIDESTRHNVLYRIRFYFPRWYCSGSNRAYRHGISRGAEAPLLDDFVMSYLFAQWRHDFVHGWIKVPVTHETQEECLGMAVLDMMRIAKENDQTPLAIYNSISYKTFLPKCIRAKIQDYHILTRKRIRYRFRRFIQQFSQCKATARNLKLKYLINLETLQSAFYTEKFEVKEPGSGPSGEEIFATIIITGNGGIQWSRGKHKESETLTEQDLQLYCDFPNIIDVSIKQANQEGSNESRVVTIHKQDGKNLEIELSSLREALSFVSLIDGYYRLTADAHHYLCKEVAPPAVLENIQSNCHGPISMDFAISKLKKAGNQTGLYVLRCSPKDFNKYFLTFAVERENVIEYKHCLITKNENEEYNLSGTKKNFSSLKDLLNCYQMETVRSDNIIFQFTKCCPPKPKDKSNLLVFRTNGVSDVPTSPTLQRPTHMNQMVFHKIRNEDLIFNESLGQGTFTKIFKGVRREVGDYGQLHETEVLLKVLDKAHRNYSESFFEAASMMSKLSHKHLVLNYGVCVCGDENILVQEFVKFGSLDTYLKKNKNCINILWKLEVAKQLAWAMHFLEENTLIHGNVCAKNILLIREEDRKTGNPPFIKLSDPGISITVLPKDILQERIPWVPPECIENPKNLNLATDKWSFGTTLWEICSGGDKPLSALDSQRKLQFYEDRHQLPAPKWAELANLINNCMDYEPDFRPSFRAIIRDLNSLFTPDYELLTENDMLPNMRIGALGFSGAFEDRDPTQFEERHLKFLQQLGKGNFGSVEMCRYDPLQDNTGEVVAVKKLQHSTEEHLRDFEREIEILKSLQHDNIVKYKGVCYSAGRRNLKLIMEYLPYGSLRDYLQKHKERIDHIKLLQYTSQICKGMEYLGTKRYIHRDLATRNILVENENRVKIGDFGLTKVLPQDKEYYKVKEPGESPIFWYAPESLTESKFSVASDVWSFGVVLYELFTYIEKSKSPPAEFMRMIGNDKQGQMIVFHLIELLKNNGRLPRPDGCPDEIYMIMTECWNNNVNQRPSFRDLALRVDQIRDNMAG
Sequence of JAK1 (P23458 whole entry): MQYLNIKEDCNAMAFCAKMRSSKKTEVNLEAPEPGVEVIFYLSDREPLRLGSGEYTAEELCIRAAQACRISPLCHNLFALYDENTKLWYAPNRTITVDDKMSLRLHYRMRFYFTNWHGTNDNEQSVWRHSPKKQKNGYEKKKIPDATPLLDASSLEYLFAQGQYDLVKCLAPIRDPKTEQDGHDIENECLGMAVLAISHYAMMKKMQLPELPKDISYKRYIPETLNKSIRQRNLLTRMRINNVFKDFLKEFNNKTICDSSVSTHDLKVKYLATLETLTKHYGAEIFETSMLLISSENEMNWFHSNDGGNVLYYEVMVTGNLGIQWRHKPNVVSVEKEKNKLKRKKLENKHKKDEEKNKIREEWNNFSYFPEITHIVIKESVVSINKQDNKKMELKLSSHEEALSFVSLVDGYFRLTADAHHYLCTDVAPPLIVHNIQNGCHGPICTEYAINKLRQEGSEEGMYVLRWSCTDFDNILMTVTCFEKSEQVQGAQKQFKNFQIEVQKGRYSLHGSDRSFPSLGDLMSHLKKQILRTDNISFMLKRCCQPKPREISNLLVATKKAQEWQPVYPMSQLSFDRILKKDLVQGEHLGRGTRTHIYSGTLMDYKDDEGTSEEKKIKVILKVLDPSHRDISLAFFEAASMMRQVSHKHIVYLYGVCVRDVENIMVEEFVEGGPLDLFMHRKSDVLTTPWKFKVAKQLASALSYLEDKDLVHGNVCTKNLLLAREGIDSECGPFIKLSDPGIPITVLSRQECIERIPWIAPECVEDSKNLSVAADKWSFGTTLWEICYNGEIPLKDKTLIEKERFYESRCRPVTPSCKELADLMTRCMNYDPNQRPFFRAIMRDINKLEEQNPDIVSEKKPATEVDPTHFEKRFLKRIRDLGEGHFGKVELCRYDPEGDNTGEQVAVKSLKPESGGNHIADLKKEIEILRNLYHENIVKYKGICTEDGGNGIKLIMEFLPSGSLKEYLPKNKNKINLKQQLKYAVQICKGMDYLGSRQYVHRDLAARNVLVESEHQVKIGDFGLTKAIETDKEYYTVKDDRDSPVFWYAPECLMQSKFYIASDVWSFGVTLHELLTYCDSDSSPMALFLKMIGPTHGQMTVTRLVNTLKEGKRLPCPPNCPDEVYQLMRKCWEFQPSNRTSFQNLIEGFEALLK

| IC50 (Human Tyk2 kinase domain) [nM] | IC50 (JAK3) [nM] | IC50 (JAK1) [nM] | IC50 (JAK2) [nM] | Structure (SMILES) | IC50 (JAK1; [1]) [nM] |
| --- | --- | --- | --- | --- | --- |
| 100 to 1000 | 1000 to 10000 | 1000 to 10000 | 100 to 1000 | CC(C)C[C@H](C)n1cc(-c2nc(-c3cnn(C(CO)CO)c3)cn3nccc23)cn1 [Example 87, (S)-2-(4-(4-(1-(4-methylpentan-2-yl)-1H-pyrazol-4-yl)pyrazolo[1,5-a]pyrazin-6-yl)-1H-pyrazol-1-yl)propane-1,3-diol] |  |
| 100 to 1000 | 1000 to 10000 | 100 to 1000 | 100 to 1000 | CCC(CC)n1cc(-c2nc(-c3cnn(CC(C)(C)O)c3)cn3nccc23)cn1 [Example 117, 2-methyl-1-(4-(4-(1-(pentan-3-yl)-1H-pyrazol-4-yl)pyrazolo[1,5-a]pyrazin-6-yl)-1H-pyrazol-1-yl)propan-2-ol] |  |
| 10 to 100 | 1000 to 10000 |  | 10 to 100 | CCC(CC)n1cc(-c2nc(-c3cnn([C@H](C)[C@@H](C)O)c3)cn3nccc23)cn1 (single isomer, unassigned) [Example 156] | 100 to 1000 |
| 10 to 100 | 1000 to 10000 | 1000 to 10000 | 10 to 100 | CCC(CC)n1cc(-c2nc(-c3cnn([C@@H]4CCNC[C@H]4O)c3)cn3nccc23)cn1 [Example 188, (3R,4R)-4-(4-(4-(1-(pentan-3-yl)-1H-pyrazol-4-yl)pyrazolo[1,5-a]pyrazin-6-yl)-1H-pyrazol-1-yl)piperidin-3-ol] |  |
| 10 to 100 | 1000 to 10000 | 100 to 1000 | 10 to 100 | CCC(CC)n1cc(-c2nc(-c3cnn([C@H]4C[C@@H](CO)C4)c3)cn3nccc23)cn1 [compound 166, (cis-3-(4-(4-(1-(pentan-3-yl)-1H-pyrazol-4-yl)pyrazolo[1,5-a]pyrazin-6-yl)-1H-pyrazol-1-yl)cyclobutyl)methanol] |  |
| 100 to 1000 | 1000 to 10000 | 1000 to 10000 | 1000 to 10000 | CCC(CC)n1cc(-c2nc(-c3cnn(C[C@@H](C)O)c3)cn3nccc23)cn1 [Example 109, (R)-1-(4-(4-(1-(pentan-3-yl)-1H-pyrazol-4-yl)pyrazolo[1,5-a]pyrazin-6-yl)-1H-pyrazol-1-yl)propan-2-ol] |  |
| 10 to 100 | 1000 to 10000 | 100 to 1000 | 10 to 100 | CCC(CC)n1cc(-c2nc(-c3cnn([C@H]4C[C@H](C(N)=O)C4)c3)cn3nccc23)cn1 [Example 167, (1r,3r)-3-(4-(4-(1-(pentan-3-yl)-1H-pyrazol-4-yl)pyrazolo[1,5-a]pyrazin-6-yl)-1H-pyrazol-1-yl)cyclobutanecarboxamide] |  |
| 10 to 100 | 1000 to 10000 | 100 to 1000 | 10 to 100 | CCC(CC)n1cc(-c2nc(-c3cnn(CCN4CCNC(=O)C4)c3)cn3nccc23)cn1 [Example 144, 4-(2-(4-(4-(1-(pentan-3-yl)-1H-pyrazol-4-yl)pyrazolo[1,5-a]pyrazin-6-yl)-1H-pyrazol-1-yl)ethyl)piperazin-2-one] |  |
| 100 to 1000 | 1000 to 10000 | 100 to 1000 | 100 to 1000 | CCC(CC)n1cc(-c2nc(-c3cnn(CC4(O)CCN(C(C)=O)CC4)c3)cn3nccc23)cn1 [Example 185, 1-(4-hydroxy-4-((4-(4-(1-(pentan-3-yl)-1H-pyrazol-4-yl)pyrazolo[1,5-a]pyrazin-6-yl)-1H-pyrazol-1-yl)methyl)piperidin-1-yl)ethanone] |  |

Continued, molecule first:

| Structure (SMILES) | IC50 (Human Tyk2 kinase domain) [nM] | IC50 (JAK3) [nM] | IC50 (JAK1) [nM] | IC50 (JAK2) [nM] | IC50 (JAK1; [1]) [nM] |
| --- | --- | --- | --- | --- | --- |
| Cn1cc(-c2cn3nccc3c(-c3cnn(C4CCCC4CO)c3)n2)cn1 (centres unmarked) [Example 51, (2-(4-(6-(1-methyl-1H-pyrazol-4-yl)pyrazolo[1,5-a]pyrazin-4-yl)-1H-pyrazol-1-yl)cyclopentyl)methanol] | 100 to 1000 | 1000 to 10000 | 1000 to 10000 | 1000 to 10000 |  |
| CCC(CC)n1cc(-c2nc(-c3cnn(C[C@@H]4CNCCO4)c3)cn3nccc23)cn1 [Example 127, (S)-2-((4-(4-(1-(pentan-3-yl)-1H-pyrazol-4-yl)pyrazolo[1,5-a]pyrazin-6-yl)-1H-pyrazol-1-yl)methyl)morpholine trifluoroacetic acid] | 100 to 1000 | 1000 to 10000 | 1000 to 10000 | 100 to 1000 |  |
| CCC(CC)n1cc(-c2nc(-c3cnn(C4CCNCC4)c3)cn3nccc23)cn1 [Example 25, 4-(1-(pentan-3-yl)-1H-pyrazol-4-yl)-6-(1-(piperidin-4-yl)-1H-pyrazol-4-yl)pyrazolo[1,5a]pyrazine hydrochloride] | 10 to 100 | 1000 to 10000 | 100 to 1000 | 10 to 100 |  |
| CCC(CC)n1cc(-c2nc(-c3cnn(C[C@@H](O)[C@@H](C)O)c3)cn3nccc23)cn1 [Example 59, (2R,3R)-1-(4-(4-(1-(pentan-3-yl)-1H-pyrazol-4-yl)pyrazolo[1,5-a]pyrazin-6-yl)-1H-pyrazol-l-yl)butane-2,3-diol] | 10 to 100 | 1000 to 10000 |  | 10 to 100 | 100 to 1000 |
| CCC(CC)n1cc(-c2nc(-c3cnn(CC(=O)N4CCOCC4)c3)cn3nccc23)cn1 [Example 6, 1-morpholino-2-(4-(4-(1-(pentan-3-yl)-1H-pyrazol-4-yl)pyrazolo[1,5-a]pyrazin-6-yl)-1H-pyrazol-1-yl)ethanone] | 10 to 100 | 1000 to 10000 | 10 to 100 | 10 to 100 |  |
| CCC(CC)n1cc(-c2nc(-c3cnn(CCS(C)(=O)=O)c3)cn3nccc23)cn1 [Example 22, 6-(1-(2-(methylsulfonyl)ethyl)-1H-pyrazol-4-yl)-4-(1-(pentan-3-yl)-1H-pyrazol-4-yl)pyrazolo[1,5-a]pyrazine] | 10 to 100 | 1000 to 10000 | 100 to 1000 | 10 to 100 |  |
| CCC(CC)n1cc(-c2nc(-c3cnn(C4CN(C(=O)C5CC5)C4)c3)cn3nccc23)cn1 [Example 43, cyclopropyl(3-(4-(4-(1-(pentan-3-yl)-1H-pyrazol-4-yl)pyrazolo[1,5-a]pyrazin-6-yl)-1H-pyrazol-1-yl)azetidin-l-yl)methanone] | 10 to 100 | 1000 to 10000 | 1000 to 10000 | 10 to 100 |  |
| CCC(C)n1cc(-c2nc(-c3cnn(C[C@@H](O)CO)c3)cn3nccc23)cn1 (stereo partly drawn) [Example 67, (2R)-3-(4-(4-(1-(sec-butyl)-1H-pyrazol-4-yl)pyrazolo[1,5-a]pyrazin-6-yl)-1H-pyrazol-1-yl)propane-1,2-diol] | 100 to 1000 | 100 to 1000 |  | 10 to 100 | 100 to 1000 |
| CC[C@H](C)n1cc(-c2nc(-c3cnn(C[C@@H](O)CO)c3)cn3nccc23)cn1 [Example 68, (R)-3-(4-(4-(1-((S)-sec-butyl)-1H-pyrazol-4-yl)pyrazolo[1,5-a]pyrazin-6-yl)-1H-pyrazol-1-yl)propane-1,2-diol] | 10 to 100 | 1000 to 10000 |  | 10 to 100 | 100 to 1000 |
| CC[C@@H](C)n1cc(-c2nc(-c3cnn(C4CCS(=O)(=O)CC4)c3)cn3nccc23)cn1 [Example 21, (R)-4-(4-(4-(1-(sec-butyl)-1H-pyrazol-4-yl)pyrazolo[1,5-a]pyrazin-6-yl)-1H-pyrazol-1-yl)tetrahydro-2H-thiopyran 1,1-dioxide] | 100 to 1000 | 1000 to 10000 | 1000 to 10000 | 10 to 100 |  |
| CCC(CC)n1cc(-c2nc(-c3cnn(C4CN(P(=O)(N(C)C)N(C)C)C4)c3)cn3nccc23)cn1 [Example 41, Bis-N,N-dimethyl-P-(3-(4-(4-(1-(pentan-3-yl)-1H-pyrazol-4-yl)pyrazolo[1,5-a]pyrazin-6-yl)-1H-pyrazol-1-yl)azetidin-1-yl)phosphonic amide] | 10 to 100 | 1000 to 10000 | 100 to 1000 | 10 to 100 |  |
